Test systems include OVCAR-8 ovarian; HOP-62 NSCLC; SK-OV-3 ovarian; UO-31 renal; K-562 leukemia; 786-0 renal; HCT-15 colon; SF-539 CNS; MOLT-4 leukemia; OVCAR-4 ovarian.
Common to all, as to experiment: NCI-60 cell line screen, 48 h

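Where inhibition never reached the appropriate level, the endpoint shown equals the highest concentration tested. Otherwise, values were interpolated linearly from a five-concentration, 48-hour dose response in 96-well plates. TGI is the concentration that stops growth completely.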 Bounds are passed on as bounds.

With `Nc1c2c(nc3ccccc13)CCCc1ccccc1-2`, the TGI was 30.8 µM in the experiment with OVCAR-8 ovarian; 28 µM in the experiment on HOP-62 NSCLC; greater than 100 µM in the experiment with SK-OV-3 ovarian; 26.3 µM in the experiment on UO-31 renal; greater than 100 µM in the experiment with K-562 leukemia; 24.9 µM with 786-0 renal. In addition, the TGI was 35.5 µM in the experiment with HCT-15 colon, 25.9 µM in the experiment on SF-539 CNS, greater than 100 µM in the experiment with MOLT-4 leukemia and 84.8 µM in the experiment with OVCAR-4 ovarian.
In the case of `C=CCn1c(-c2ccc(Cl)cc2Cl)csc1=Nc1c(C)n(C)n(-c2ccccc2)c1=O`, the TGI with OVCAR-8 ovarian stood at 21.7 µM; with HOP-62 NSCLC, 29.7 µM; with SK-OV-3 ovarian, 19.4 µM; with UO-31 renal, 24.3 µM; in the experiment on K-562 leukemia, 8.38 µM; in the experiment on 786-0 renal, 26.7 µM. Further, the TGI in the experiment on HCT-15 colon came out at 30 µM; in the experiment on SF-539 CNS, 30.4 µM; in the experiment on MOLT-4 leukemia it was 18.6 µM; in the experiment on OVCAR-4 ovarian, 28.3 µM.
On to `CCOP(C)(=O)/C(Cc1ccc(OC)c(OC)c1)=N\O` (stereo not given), for which the TGI in the experiment on OVCAR-8 ovarian, in the experiment on HOP-62 NSCLC, in the experiment with SK-OV-3 ovarian, in the experiment with UO-31 renal, with K-562 leukemia and in the experiment on 786-0 renal was greater than 100 µM in each case. In addition, the TGI with HCT-15 colon, in the experiment on SF-539 CNS, with MOLT-4 leukemia and in the experiment with OVCAR-4 ovarian was greater than 100 µM throughout.
Take `O=[N+]([O-])c1ccc(COc2cccc3cccnc23)cc1`: the TGI in the experiment on OVCAR-8 ovarian was greater than 100 µM; in the experiment on HOP-62 NSCLC it was greater than 100 µM; in the experiment on SK-OV-3 ovarian, greater than 100 µM; in the experiment with UO-31 renal, 68.1 µM; in the experiment with K-562 leukemia it was 35.9 µM; with 786-0 renal, 90.6 µM. In addition, the TGI in the experiment on HCT-15 colon came to 25.7 µM; in the experiment with SF-539 CNS, 92.7 µM; with MOLT-4 leukemia, 31.4 µM; in the experiment with OVCAR-4 ovarian, 36.7 µM.
Regarding `COc1cc(Nc2nc3ccccc3nc2C(C)C)cc(OC)c1OC`, the TGI with OVCAR-8 ovarian, in the experiment on HOP-62 NSCLC, with SK-OV-3 ovarian, in the experiment on UO-31 renal, with K-562 leukemia and in the experiment on 786-0 renal was greater than 100 µM in each case. Further, the TGI in the experiment with HCT-15 colon, with SF-539 CNS, in the experiment on MOLT-4 leukemia and in the experiment with OVCAR-4 ovarian was greater than 100 µM in each case.
`CCn1c(=O)c2c3cc(OC(C)=O)ccc3oc2c2ccc(OC(C)=O)cc21`: the TGI in the experiment on OVCAR-8 ovarian was greater than 100 µM; with HOP-62 NSCLC it was greater than 100 µM; in the experiment on SK-OV-3 ovarian it was greater than 100 µM; with UO-31 renal, 83 µM; in the experiment on K-562 leukemia it was greater than 100 µM; with 786-0 renal, greater than 100 µM. Also, the TGI was greater than 100 µM with HCT-15 colon, 94.3 µM in the experiment with SF-539 CNS, greater than 100 µM in the experiment on MOLT-4 leukemia and greater than 100 µM in the experiment on OVCAR-4 ovarian.
In the case of `O[C@H]1[C@H](O)[C@@H](Cn2nnc(-c3ccccc3)c2-c2ccccc2)OCO[C@@H]1Cn1nnc(-c2ccccc2)c1-c1ccccc1`, the TGI with OVCAR-8 ovarian was 18.1 µM; in the experiment with HOP-62 NSCLC, 29 µM; with SK-OV-3 ovarian it was 27.2 µM; with UO-31 renal it was 17 µM; in the experiment with K-562 leukemia, greater than 100 µM; with 786-0 renal, 7.39 µM. Also, the TGI with HCT-15 colon is 11.8 µM; in the experiment on SF-539 CNS it was 10.8 µM; in the experiment with MOLT-4 leukemia, greater than 30.4 µM; with OVCAR-4 ovarian it was 26.9 µM.
In the case of `CC[C@H]1C=CCC[C@@]2(C[C@@H]3CC[C@@H]4[C@H](C(=O)OCCCCCCCCCCCCCCCC(=O)N(CCCNC(C)=O)C[C@H](CCNC(C)=O)OC(C)=O)[C@]5(CCC[C@@H](C)O5)NC(=[N+]34)N2)O1`, the TGI amounted to 2.48 µM in the experiment on OVCAR-8 ovarian; 1.84 µM in the experiment with HOP-62 NSCLC; 2.73 µM with SK-OV-3 ovarian; 2.46 µM with UO-31 renal; 3.81 µM in the experiment with K-562 leukemia; 0.426 µM with 786-0 renal. The TGI with HCT-15 colon came to 2.78 µM; in the experiment with SF-539 CNS, 1.59 µM; with MOLT-4 leukemia it was 1.66 µM; in the experiment with OVCAR-4 ovarian it was 1.84 µM.
`Oc1ccccc1-c1nn2c(CCCCCCCCc3nnc4sc(-c5ccccc5O)nn34)nnc2s1`: the TGI with OVCAR-8 ovarian was greater than 100 µM; with HOP-62 NSCLC, greater than 92.2 µM; in the experiment on SK-OV-3 ovarian, 83.8 µM; in the experiment on UO-31 renal it was 48.5 µM; in the experiment with K-562 leukemia it was greater than 100 µM; in the experiment on 786-0 renal it was greater than 100 µM. Also, the TGI is greater than 100 µM in the experiment on HCT-15 colon, greater than 66.6 µM in the experiment on SF-539 CNS, 51.1 µM in the experiment with MOLT-4 leukemia and greater than 100 µM with OVCAR-4 ovarian.
For the compound `Cc1cc(C)c2c(=O)cc(-c3ccc4ccccc4c3)[nH]c2n1`, the TGI in the experiment with OVCAR-8 ovarian was greater than 100 µM; in the experiment on HOP-62 NSCLC, greater than 93.8 µM; in the experiment with SK-OV-3 ovarian, greater than 100 µM; with UO-31 renal, greater than 100 µM; in the experiment with K-562 leukemia, 4.26 µM; with 786-0 renal, greater than 100 µM. In addition, the TGI with HCT-15 colon was greater than 100 µM; in the experiment on SF-539 CNS, greater than 93.4 µM; in the experiment with MOLT-4 leukemia, 12.9 µM; in the experiment with OVCAR-4 ovarian it was greater than 100 µM.
For `Cc1nnc([C@@]2(C)CC[C@H]3[C@@H](CCC4=CC(=O)CC[C@@]43C)[C@@H]2CC#N)o1`, the TGI with OVCAR-8 ovarian, with HOP-62 NSCLC, with SK-OV-3 ovarian, in the experiment on UO-31 renal, in the experiment on K-562 leukemia and in the experiment on 786-0 renal was greater than 100 µM throughout. Also, the TGI in the experiment with HCT-15 colon, in the experiment with SF-539 CNS, in the experiment with MOLT-4 leukemia and in the experiment on OVCAR-4 ovarian was greater than 100 µM throughout.
For `CC(=O)c1ccccc1NS(=O)(=O)c1ccc2nc(C)n(NS(=O)(=O)c3ccccc3C(C)=O)c(=O)c2c1`, the TGI with OVCAR-8 ovarian, with HOP-62 NSCLC, in the experiment with SK-OV-3 ovarian, with UO-31 renal, with K-562 leukemia and with 786-0 renal was greater than 100 µM throughout. Further, the TGI in the experiment on HCT-15 colon, in the experiment on SF-539 CNS, with MOLT-4 leukemia and in the experiment with OVCAR-4 ovarian was greater than 100 µM in each case.

Values taken from PubChem BioAssay (NCI).
